This is an account of results in ChEMBL document CHEMBL1926587, “Molecular insights into human monoamine oxidase (MAO) inhibition by 1,4-naphthoquinone: evidences for menadione (vitamin K3) acting as a competitive and reversible inhibitor of MAO” (Bioorg Med Chem, 2011).

In series [1] the target is T1, Amine oxidase [flavin-containing] B (Homo sapiens, UniProt P27338).
T1 sequence (P27338 whole entry): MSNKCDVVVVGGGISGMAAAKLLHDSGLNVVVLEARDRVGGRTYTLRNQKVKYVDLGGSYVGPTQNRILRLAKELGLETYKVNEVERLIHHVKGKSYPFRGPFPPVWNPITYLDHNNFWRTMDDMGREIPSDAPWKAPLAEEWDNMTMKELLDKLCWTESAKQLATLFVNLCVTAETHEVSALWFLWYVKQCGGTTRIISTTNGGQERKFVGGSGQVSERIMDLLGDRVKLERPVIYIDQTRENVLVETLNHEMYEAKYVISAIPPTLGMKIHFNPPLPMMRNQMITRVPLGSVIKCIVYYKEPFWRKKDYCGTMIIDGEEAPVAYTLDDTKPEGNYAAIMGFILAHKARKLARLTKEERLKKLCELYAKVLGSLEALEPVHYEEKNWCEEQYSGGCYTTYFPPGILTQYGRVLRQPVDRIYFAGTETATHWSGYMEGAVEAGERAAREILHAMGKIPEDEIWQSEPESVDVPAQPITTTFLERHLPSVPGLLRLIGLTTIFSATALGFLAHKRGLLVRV
In words: Competitive inhibition of human MAO-B.

The target in series [2] is T2, Amine oxidase [flavin-containing] A (Homo sapiens, UniProt P21397).
T2 sequence (P21397 whole entry): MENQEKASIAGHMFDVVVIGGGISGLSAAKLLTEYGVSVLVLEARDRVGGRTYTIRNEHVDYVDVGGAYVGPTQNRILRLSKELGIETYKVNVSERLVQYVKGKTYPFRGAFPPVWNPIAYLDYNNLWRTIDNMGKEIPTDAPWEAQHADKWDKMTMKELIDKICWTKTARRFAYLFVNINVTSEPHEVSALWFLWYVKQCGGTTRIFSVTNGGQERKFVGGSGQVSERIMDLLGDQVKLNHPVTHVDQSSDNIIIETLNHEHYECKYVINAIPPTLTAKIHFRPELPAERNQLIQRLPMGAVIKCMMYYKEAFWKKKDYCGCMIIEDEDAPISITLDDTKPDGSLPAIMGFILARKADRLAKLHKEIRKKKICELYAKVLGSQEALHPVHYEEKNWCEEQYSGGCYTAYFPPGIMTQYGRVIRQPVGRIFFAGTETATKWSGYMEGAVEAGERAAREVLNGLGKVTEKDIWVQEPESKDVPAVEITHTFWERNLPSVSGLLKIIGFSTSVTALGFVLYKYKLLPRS
In words: Competitive inhibition of human MAO-A.

The species named for a further series is Homo sapiens. In words: Selectivity ratio of Ki for human recombinant MAO-A to Ki for human recombinant MAO-B.
For another series, the species on record is Rattus norvegicus. In words: Selectivity ratio of Ki for rat MAO-A to Ki for rat MAO-B.
Series [3] has as its target T1, Amine oxidase [flavin-containing] B. In words: Competitive inhibition of human recombinant MAO-B expressed in baculovirus infected insect cells using benzylamine as substrate by Lineweaver-Burk plot analysis.
The target is the same in series [4]. In words: Reversible inhibition of human recombinant MAO-B expressed in baculovirus infected insect cells assessed as decrease in Km at 5 uM preincubated for 20 mins measured 3 hrs post dialysis by Lineweaver-Burk plot analysis.
The target of series [5] is T2, Amine oxidase [flavin-containing] A. In words: Reversible inhibition of human recombinant MAO-A expressed in baculovirus infected insect cells assessed as decrease in Km at 5 uM preincubated for 20 mins measured 3 hrs post dialysis by Lineweaver-Burk plot analysis.
The target in series [6] is T1, Amine oxidase [flavin-containing] B. In words: Competitive inhibition of human recombinant MAO-B expressed in baculovirus infected insect cells assessed as reduction in fluorescence at 10 to 12 uM by spectrofluorimetry relative to control. Also noted: scale not given: the % may be the effect or the level left.
In series [7] the target is T2, Amine oxidase [flavin-containing] A. In words: Competitive inhibition of human recombinant MAO-A expressed in baculovirus infected insect cells using p-tyramine as substrate by Lineweaver-Burk plot analysis.
For series [8] the target is unchanged. In words: Competitive inhibition of human recombinant MAO-A expressed in baculovirus infected insect cells assessed as increase in Km at 5 uM by Lineweaver-Burk plot analysis.
Series [9] addresses T1, Amine oxidase [flavin-containing] B. In words: Competitive inhibition of human recombinant MAO-B expressed in baculovirus infected insect cells assessed as increase in Km at 5 uM by Lineweaver-Burk plot analysis.
In another series the test system is Armoracia rusticana. In words: Inhibition of horseradish peroxidase at 100 uM after 45 mins by amplex red assay in the presence of hydrogen peroxide.
Series [10] concerns the target T2, Amine oxidase [flavin-containing] A. In words: Noncompetitive inhibition of human recombinant MAO-A expressed in baculovirus infected insect cells using p-tyramine as substrate by Lineweaver-Burk plot analysis.
The target is the same in series [11]. In words: Reversible inhibition of human recombinant MAO-A expressed in baculovirus infected insect cells assessed as increase in Vmax at 5 uM preincubated for 20 mins measured 3 hrs post dialysis by Lineweaver-Burk plot analysis.
Series [12] deals with T1, Amine oxidase [flavin-containing] B. In words: Competitive inhibition of human recombinant MAO-B expressed in baculovirus infected insect cells assessed as reduction in fluorescence at 20 to 25 uM by spectrofluorimetry relative to control. Also noted: scale not given: the % may be the effect or the level left.
Series [13] deals with T2, Amine oxidase [flavin-containing] A. In words: Noncompetitive inhibition of human recombinant MAO-A expressed in baculovirus infected insect cells assessed as reduction in Vmax at 5 uM by Lineweaver-Burk plot analysis.

pKi: −log10 of the molar value. Calls of active or inactive are those of the source. No cut-off for these calls is given here.

Regarding `CC1=C(C)C(=O)c2cc(C)ccc2C1=O`, the pKi is 5.52 in series [1] and 5.22 in series [2].
In the case of `C#CCN(C)[C@H](C)Cc1ccccc1`, the Ratio Ki in the series filed under Homo sapiens and in the series filed under Rattus norvegicus was 250 in each case.
Take `C#CCN[C@@H]1CCc2ccccc21`: the Ratio Ki in the series filed under Homo sapiens was determined as 50; in the series listed under Rattus norvegicus, 93.
Take `CC1=CC(=O)c2ccccc2C1=O` [MENADIONE]: the pKi in series [3] is 6.40; in series [7] it was 4.59. The “inhibition (INH)” value in series [4], in series [5], in series [8] and in series [9] was “Active” in each case. Besides, the Activity in series [6] came out at 50%. In addition, the Ratio Ki in the series listed under Homo sapiens turned out to be 60. In addition, the inhibition entry with Armoracia rusticana was “inactive”.
Take `O=C1C=CC(=O)c2ccccc21` [NAPHTHOQUINONE]: the figures for the negative logarithm of the Ki (pKi) in series [3] and in series [10] were 5.82 and 5.11, respectively. Also, the “inhibition (INH)” value in [4], in series [11], in series [13] and in [9] was “Active” throughout. In addition, in series [12], the Activity came to 50%. For the same compound, in the series with Armoracia rusticana, the inhibition entry is “inactive”.

What is called pKi is the negative decadic logarithm of the Ki, by convention in mol/L.
